{"source": "paper PMC9095466", "about": "(Nature, 2022)", "key": {"human TMPRSS2": {"target": "human TMPRSS2 (Homo sapiens, UniProt O15393)", "sequence (O15393 whole entry)": "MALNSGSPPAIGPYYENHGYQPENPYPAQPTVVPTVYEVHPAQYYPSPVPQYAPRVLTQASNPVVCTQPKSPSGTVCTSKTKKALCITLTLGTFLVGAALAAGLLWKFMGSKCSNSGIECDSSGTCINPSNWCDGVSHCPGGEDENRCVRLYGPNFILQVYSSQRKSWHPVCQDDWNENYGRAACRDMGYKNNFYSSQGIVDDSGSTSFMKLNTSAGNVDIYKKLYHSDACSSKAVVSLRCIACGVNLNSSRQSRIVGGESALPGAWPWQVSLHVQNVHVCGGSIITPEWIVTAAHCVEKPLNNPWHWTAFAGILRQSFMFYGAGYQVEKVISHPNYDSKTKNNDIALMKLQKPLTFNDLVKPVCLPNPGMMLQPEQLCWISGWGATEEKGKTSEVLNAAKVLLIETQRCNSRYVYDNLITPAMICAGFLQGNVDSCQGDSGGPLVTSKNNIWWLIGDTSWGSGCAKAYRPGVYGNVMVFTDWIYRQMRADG", "assay": "cell-based"}, "[1]": {"target": "T1, Recombinant human matriptase (Homo sapiens, UniProt Q9Y5Y6)", "T1 construct": "made in house", "T1 sequence (Q9Y5Y6 1-855)": "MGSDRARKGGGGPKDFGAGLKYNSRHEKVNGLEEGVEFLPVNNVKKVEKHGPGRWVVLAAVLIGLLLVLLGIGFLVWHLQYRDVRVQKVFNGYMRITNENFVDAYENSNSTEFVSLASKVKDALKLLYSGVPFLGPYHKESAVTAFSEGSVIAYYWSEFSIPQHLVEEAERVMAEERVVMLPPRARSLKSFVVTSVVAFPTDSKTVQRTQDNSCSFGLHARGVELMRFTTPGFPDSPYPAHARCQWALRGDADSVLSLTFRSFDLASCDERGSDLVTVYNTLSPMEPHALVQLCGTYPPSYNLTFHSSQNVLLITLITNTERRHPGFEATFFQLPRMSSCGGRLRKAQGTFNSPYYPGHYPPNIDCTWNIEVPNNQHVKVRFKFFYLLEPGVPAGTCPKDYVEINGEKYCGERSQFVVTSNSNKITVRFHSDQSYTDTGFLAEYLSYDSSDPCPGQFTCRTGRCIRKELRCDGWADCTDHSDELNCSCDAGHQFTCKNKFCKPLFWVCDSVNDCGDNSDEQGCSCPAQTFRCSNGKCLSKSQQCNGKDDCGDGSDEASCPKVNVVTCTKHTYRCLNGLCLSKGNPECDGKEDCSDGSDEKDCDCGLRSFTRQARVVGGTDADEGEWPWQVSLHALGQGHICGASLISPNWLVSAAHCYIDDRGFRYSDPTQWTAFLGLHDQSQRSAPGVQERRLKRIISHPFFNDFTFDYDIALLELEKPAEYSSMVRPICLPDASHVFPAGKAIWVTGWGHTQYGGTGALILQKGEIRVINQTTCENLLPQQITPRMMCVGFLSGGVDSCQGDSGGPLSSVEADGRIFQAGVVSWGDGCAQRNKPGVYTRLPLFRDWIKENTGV", "assay": "Protease selectivity, Ki on recombinant protease", "assay_type": "biochemical"}, "Recombinant human DESC1": {"target": "T2, Recombinant human DESC1 (Homo sapiens, UniProt Q9UL52)", "T2 construct": "made in house", "T2 sequence (Q9UL52 1-423)": "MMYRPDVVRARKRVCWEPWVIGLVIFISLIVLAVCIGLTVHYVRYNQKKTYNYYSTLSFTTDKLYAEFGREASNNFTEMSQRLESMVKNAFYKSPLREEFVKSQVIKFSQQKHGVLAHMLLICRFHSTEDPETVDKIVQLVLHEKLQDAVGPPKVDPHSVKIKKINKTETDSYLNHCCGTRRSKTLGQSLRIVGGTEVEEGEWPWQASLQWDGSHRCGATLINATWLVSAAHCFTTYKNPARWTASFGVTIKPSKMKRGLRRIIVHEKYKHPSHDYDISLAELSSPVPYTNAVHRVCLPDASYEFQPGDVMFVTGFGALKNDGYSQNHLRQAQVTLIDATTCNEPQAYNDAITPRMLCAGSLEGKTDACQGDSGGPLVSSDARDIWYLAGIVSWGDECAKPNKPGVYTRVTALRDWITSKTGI", "assay": "Protease selectivity, Ki on recombinant protease", "assay_type": "biochemical"}, "[2]": {"test_system": "SARS-CoV-2 lineage B strain (VIDO)", "assay": "microbe, parasite or virus in culture", "assay_type": "cell-based"}, "SARS-CoV-2 (VIDO)": {"test_system": "SARS-CoV-2 (VIDO)", "assay_type": "cell-based", "set-up": "plaque assay titre, Figure 2c: unit not given beside the values", "conditions": "for reduction of viral titre (plaque assay): supernatant of infected Calu-3 cells, vs DMSO-treated infected control; for plaque assay titre, Figure 2c: replicate columns, listed as Cm"}, "Vero E6 cells": {"test_system": "Vero E6 cells", "assay": "Cytotoxicity assay (Cell Titer-Glo 2.0) in Vero E6 cells", "assay_type": "cell-based", "conditions": "10 μM compound, 24 h, relative to vehicle (DMSO 0.01%); single experiments N1-N4; 10 µM", "method": "Calu-3 and Vero E6 cells (2500 or 10,000 cells for samples, 80–20,000 cells for standard curve) were seeded in 96-well plates. Following a 24-h incubation at 37 °C, 5% CO2, cells were washed with D-PBS and compounds added (10 µM) for an additional 24-h incubation. Cellular viability was assessed using Cell Titer-Glo 2.0 Cell Viability Assay (Promega) according to the manufacturer’s instructions. The number of viable cells was extrapolated using the standard curve. Cellular viability in Vero E6 cells was expressed relative (%) to vehicle-treated cells. Data are from four independent experiments (mean ± s.d.)."}, "SARS-CoV-2 [3]": {"test_system": "SARS-CoV-2", "set-up": "method as in PMID 32142651, PMID 33844653", "conditions": "adenovirus hACE2 model; cited from earlier work"}, "SARS-CoV-2 [4]": {"test_system": "SARS-CoV-2", "set-up": "method as in PMID 33903855", "conditions": "hospitalized patients with COVID-19; cited from earlier work"}}, "note": "Values joined by “and” are separate entries in the source; they are usually repeats but may differ in a detail not shown here. Equal values may be shown once. Where a name gives a salt, the structure may show the parent alone. Read-outs that look alike come from different tables or passages of the source."}
{"smiles": "CN(C)C(=O)COC(=O)Cc1ccc(OC(=O)c2ccc(NC(=N)N)cc2)cc1", "note": "[Camostat mesylate, reference compound]", "values": [{"measurement": "TMPRSS2 activity (%)", "setting": "human TMPRSS2; Figure 1B, single experiments N1-N3, listed as Cm", "result": "51.0758% and 41.2255% and 43.3144%"}, {"measurement": "inhibition at 0.01 µM", "setting": "human TMPRSS2; Vero C1008, 10 nM compound, 24 h, vs untreated/vehicle TMPRSS2-expressing Vero E6 cells, read-out: inhibition of TMPRSS2 activity (reduction of substrate proteolysis)", "result": 56, "unit": "%"}, {"measurement": "Ki", "setting": "[1]; mean ± s.d., max concentration 10 µM, read-out: Ki Matriptase", "result": "5.6 ± 1", "unit": "nM"}, {"measurement": "Ki", "setting": "[1]; single experiments N1-N3, Figure 1D, read-out: Individual Ki, Matriptase", "result": "6.79 nM and 5.15 nM and 4.98 nM"}, {"measurement": "Ki", "setting": "Recombinant human DESC1; mean ± s.d., max concentration 10 µM, read-out: Ki DESC1", "result": "5.8 ± 3.4", "unit": "nM"}, {"measurement": "Ki", "setting": "Recombinant human DESC1; single experiments N1-N3, Figure 1D, read-out: Individual Ki, Desc1", "result": "7.88 nM and 7.73 nM and 1.85 nM"}, {"measurement": "Nucleocapsid", "setting": "[2]; Figure 2a, two replicates, DMSO control about 91-94, listed as Cm", "result": "8.612 and 24.2399"}, {"measurement": "dsRNA", "setting": "[2]; Figure 2a, two replicates, DMSO control about 93-95, listed as Cm", "result": "17.4079 and 31.7604"}, {"measurement": "EC50", "setting": "[2]; Severe acute respiratory syndrome coronavirus 2, Calu-3, read-out: SARS-CoV-2 VIDO Nucleocapsid EC50 ± SE", "result": "10.6 ± 8.4", "unit": "nM"}, {"measurement": "inhibition at 0.1 µM", "setting": "[2]; Severe acute respiratory syndrome coronavirus 2, Calu-3, read-out: inhibition of SARS-CoV-2 infection", "result": "> 83", "unit": "%"}, {"measurement": "Figure 2b dose-response, Mean", "setting": "[2]; log [C] (nM) 0.20412", "result": 84.468}, {"measurement": "Figure 2b dose-response, Mean", "setting": "[2]; log [C] (nM) 0.90309", "result": 76.973}, {"measurement": "Figure 2b dose-response, Mean", "setting": "[2]; log [C] (nM) 1.60206", "result": 24.9288}, {"measurement": "Figure 2b dose-response, Mean", "setting": "[2]; log [C] (nM) 2.30103", "result": 0.8428}, {"measurement": "Figure 2b dose-response, Mean", "setting": "[2]; log [C] (nM) 3", "result": 0.2267}, {"measurement": "Figure 2b dose-response, Mean", "setting": "[2]; log [C] (nM) -0.49485", "result": 80.5882}, {"measurement": "Figure 2b dose-response, Mean", "setting": "[2]; log [C] (nM) -1.19382", "result": 94.4767}, {"measurement": "reduction of viral titre (plaque assay)", "setting": "SARS-CoV-2 (VIDO); 40 nM", "result": "approximately half-log"}, {"measurement": "plaque assay titre, Figure 2c", "setting": "SARS-CoV-2 (VIDO); 40 nM", "result": "1000 (6×) and 11000 (2×) and 20000 and 10000 (2×) and 80000 and 330000 and 30000 and 170000"}, {"measurement": "reduction of viral titre (plaque assay)", "setting": "SARS-CoV-2 (VIDO); 200 nM", "result": "approximately 1.5 log"}, {"measurement": "plaque assay titre, Figure 2c", "setting": "SARS-CoV-2 (VIDO); 200 nM", "result": "1000 (9×) and 40000 and 10000 (3×) and 130000 and 30000 and 20000"}, {"measurement": "% Viability of Vero E6 cells", "setting": "Vero E6 cells", "result": "115.453% and 94.4731% and 96.0284% and 136.615%"}, {"measurement": "protection against infection", "setting": "SARS-CoV-2 [3]", "result": "no significant protection against infection was observed"}, {"measurement": "effect on the time to recovery and incidence of death", "setting": "SARS-CoV-2 [4]", "result": "no effect"}]}
